Measured values from US10988449B2, “Isoxazole derivatives as nuclear receptor agonists and uses thereof” (IL DONG PHARMACEUTICAL CO., LTD., priority 2017, dated 2021).
Counter-ions that a name gives are not always drawn.

Molecular target: T1, human FXR (Homo sapiens, UniProt Q96RI1)
T1 construct: expressed in transfected cells
T1 sequence (Q96RI1 1-486): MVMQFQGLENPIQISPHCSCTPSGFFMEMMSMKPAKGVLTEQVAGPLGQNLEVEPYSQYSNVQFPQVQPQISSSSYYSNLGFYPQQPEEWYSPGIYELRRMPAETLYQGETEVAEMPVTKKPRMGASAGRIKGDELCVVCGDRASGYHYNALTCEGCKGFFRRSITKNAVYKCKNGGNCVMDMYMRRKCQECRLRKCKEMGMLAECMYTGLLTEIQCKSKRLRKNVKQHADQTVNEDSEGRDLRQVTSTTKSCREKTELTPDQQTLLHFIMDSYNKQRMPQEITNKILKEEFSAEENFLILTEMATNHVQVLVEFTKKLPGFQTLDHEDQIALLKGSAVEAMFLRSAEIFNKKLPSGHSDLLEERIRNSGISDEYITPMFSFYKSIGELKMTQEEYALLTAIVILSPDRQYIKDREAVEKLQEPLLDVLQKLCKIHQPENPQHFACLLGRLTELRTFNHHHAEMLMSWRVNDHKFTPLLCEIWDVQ
Assay: FXR reporter assay (cellular FXR activities)
Assay type: cell-based
Settings: for EC50: FXR reporter cells, 24 hours incubation, luciferase, read-out: Reporter Cell EC50; for Emax: read-out: Emax (%) (GW4064 Emax = 100%)
Protocol: FXR reporter assay was performed to measure cellular FXR activities of the compounds in the present invention. FXR reporter cells with high expression level of human FXR were seeded into 96-well cell culture plates, and incubated for 1-2 hours at 37° C. under 5% CO2 atmosphere. The invented compounds diluted in DMSO with various concentrations were added to the 96-well cell culture plates, and they were incubated for 24 hours at 37° C. under 5% CO2 atmosphere. After incubation, we calculate EC50 by using luciferase substrate.

EC50 [µM] | Emax [%] | SMILES
≤ 0.02 | 93 | CCNc1cc(C#Cc2ccc(OCc3c(-c4c(Cl)cccc4Cl)noc3C3CC3)cc2Cl)cc(C(=O)O)c1 [Compound I-53, 3-((2-chloro-4-((5-cyclopropyl-3-(2,6-dichlorophenyl)isoxazol-4-yl)methoxy)phenyl)ethynyl)-5-(ethylamino)benzoic acid]
0.02 to 0.06 | > 100 | O=C(O)c1cc(C#Cc2ccc(OCc3c(-c4c(Cl)cccc4Cl)noc3C3CC3)cc2Cl)cc(N2CCC2)c1 [Compound I-55, 3-(azetidin-1-yl)-5-((2-chloro-4-((5-cyclopropyl-3-(2,6-dichlorophenyl)isoxazol-4-yl)methoxy)phenyl)ethynyl)benzoic acid]
0.02 to 0.06 | 98 | Cc1c(N)cc(C(=O)O)cc1C#Cc1ccc(OCc2c(-c3c(Cl)cccc3Cl)noc2C2CC2)cc1Cl [Compound I-60, 3-amino-5-((2-chloro-4-((5-cyclopropyl-3-(2,6-dichlorophenyl)isoxazol-4-yl)methoxy)phenyl)ethynyl)-4-methylbenzoic acid]
0.06 to 0.2 | 95 | COc1c(N)cc(C(=O)O)cc1C#Cc1ccc(OCc2c(-c3c(Cl)cccc3Cl)noc2C2CC2)cc1Cl [Compound I-61, 3-amino-5-((2-chloro-4-((5-cyclopropyl-3-(2,6-dichlorophenyl)isoxazol-4-yl)methoxy)phenyl)ethynyl)-4-methoxybenzoic acid]
0.06 to 0.2 | > 100 | COc1c(N)cc(C#Cc2ccc(OCc3c(-c4c(Cl)cccc4Cl)noc3C3CC3)cc2Cl)cc1C(=O)O [Compound I-62, 3-amino-5-((2-chloro-4-((5-cyclopropyl-3-(2,6-dichlorophenyl)isoxazol-4-yl)methoxy)phenyl)ethynyl)-2-methoxybenzoic acid]
0.02 to 0.06 | > 100 | O=C(O)c1cc(C#Cc2ccc(OCc3c(-c4c(Cl)cccc4Cl)noc3C3CC3)cc2Cl)cc(C2CC2)c1 [Compound I-64, 3-((2-chloro-4-((5-cyclopropyl-3-(2,6-dichlorophenyl)isoxazol-4-yl)methoxy)phenyl)ethynyl)-5-cyclopropylbenzoic acid]
0.06 to 0.2 | 92 | CCc1cc(C#Cc2ccc(OCc3c(-c4c(Cl)cccc4Cl)noc3C3CC3)cc2Cl)cc(C(=O)O)c1 [Compound I-65, 3-((2-chloro-4-((5-cyclopropyl-3-(2,6-dichlorophenyl)isoxazol-4-yl)methoxy)phenyl)ethynyl)-5-ethylbenzoic acid]
0.06 to 0.2 | 92 | CC(C)c1cc(C#Cc2ccc(OCc3c(-c4c(Cl)cccc4Cl)noc3C3CC3)cc2Cl)cc(C(=O)O)c1 [Compound I-66, 3-((2-chloro-4-((5-cyclopropyl-3-(2,6-dichlorophenyl)isoxazol-4-yl)methoxy)phenyl)ethynyl)-5-isopropylbenzoic acid]
0.02 to 0.06 | > 100 | O=C(O)c1cc(I)cc(C#Cc2ccc(OCc3c(-c4c(Cl)cccc4Cl)noc3C3CC3)cc2Cl)c1 [Compound I-67, 3-((2-chloro-4-((5-cyclopropyl-3-(2,6-dichlorophenyl)isoxazol-4-yl)methoxy)phenyl)ethynyl)-5-iodobenzoic acid]
0.2 to 1 | > 100 | Cc1c(N)cc(C#Cc2ccc(OCc3c(-c4c(Cl)cccc4Cl)noc3C3CC3)cc2Cl)cc1C(=O)O [Compound I-71, 3-amino-5-((2-chloro-4-((5-cyclopropyl-3-(2,6-dichlorophenyl)isoxazol-4-yl)methoxy)phenyl)ethynyl)-2-methylbenzoic acid]
0.2 to 1 | > 100 | CC(=O)Nc1cc(C#Cc2ccc(OCc3c(-c4c(Cl)cccc4Cl)noc3C3CC3)cc2Cl)cc(C(=O)O)c1 [Compound I-73, 3-acetamido-5-((2-chloro-4-((5-cyclopropyl-3-(2,6-dichlorophenyl)isoxazol-4-yl)methoxy)phenyl)ethynyl)benzoic acid]
≤ 0.02 | > 100 | CCOC(=O)Nc1cc(C#Cc2ccc(OCc3c(-c4c(Cl)cccc4Cl)noc3C3CC3)cc2Cl)cc(C(=O)O)c1 [Compound I-74, 3-((2-chloro-4-((5-cyclopropyl-3-(2,6-dichlorophenyl)isoxazol-4-yl)methoxy)phenyl)ethynyl)-5-((ethoxycarbonyl)amino)benzoic acid]
0.02 to 0.06 | 93 | CCOC(=O)N(C)c1cc(C#Cc2ccc(OCc3c(-c4c(Cl)cccc4Cl)noc3C3CC3)cc2Cl)cc(C(=O)O)c1 [Compound I-75]
0.02 to 0.06 | 89 | O=C(O)c1cc(C#Cc2ccc(OCc3c(-c4c(Cl)cccc4Cl)noc3C3CC3)cc2Cl)cc(N2CCOC2=O)c1 [Compound I-83, 3-((2-chloro-4-((5-cyclopropyl-3-(2,6-dichlorophenyl)isoxazol-4-yl)methoxy)phenyl)ethynyl)-5-(2-oxooxazolidin-3-yl)benzoic acid]
0.2 to 1 | 98 | O=C(O)c1cc(C#Cc2ccc(OCc3c(-c4c(Cl)cccc4Cl)noc3C3CC3)cc2Cl)cc(C(=O)O)c1 [Compound I-84, 5-((2-chloro-4-((5-cyclopropyl-3-(2,6-dichlorophenyl)isoxazol-4-yl)methoxy)phenyl)ethynyl)isophthalic acid]

Continued, compound first:

SMILES | EC50 [µM] | Emax [%]
O=C(O)c1cc(C#Cc2ccc(OCc3c(-c4c(Cl)cccc4Cl)noc3C3CC3)cc2Cl)cc(N2CCCC2)c1 [Compound I-56, 3-((2-chloro-4-((5-cyclopropyl-3-(2,6-dichlorophenyl)isoxazol-4-yl)methoxy)phenyl)ethynyl)-5-(pyrrolidin-1-yl)benzoic acid] | ≤ 0.02 | 96
O=C(O)c1cc(C#Cc2ccc(OCc3c(-c4c(Cl)cccc4Cl)noc3C3CC3)cc2Cl)cc(NC2CCNCC2)c1 [Compound I-58, 3-((2-chloro-4-((5-cyclopropyl-3-(2,6-dichlorophenyl)isoxazol-4-yl)methoxy)phenyl)ethynyl)-5-(piperidin-4-ylamino)benzoic acid hydrochloride] | > 1 | 75
O=C(O)c1cc(C#Cc2ccc(OCc3c(-c4c(Cl)cccc4Cl)noc3C3CC3)cc2Cl)cc(N2CCNCC2)c1 [Compound I-59, 3-((2-chloro-4-((5-cyclopropyl-3-(2,6-dichlorophenyl)isoxazol-4-yl)methoxy)phenyl)ethynyl)-5-(piperazin-1-yl)benzoic acid hydrochloride] | 0.2 to 1 | 90
O=C(O)c1cccc(C#Cc2cc(Cl)c(OCc3c(-c4c(Cl)cccc4Cl)noc3C3CC3)cc2Cl)c1 [Compound I-68, 3-((2,5-dichloro-4-((5-cyclopropyl-3-(2,6-dichlorophenyl)isoxazol-4-yl)methoxy)phenyl)ethynyl)benzoic acid] | > 1 | 96
O=C(O)c1cccc(C#Cc2ccc(OCc3c(-c4c(Cl)cccc4Cl)noc3C3CC3)c(Cl)c2Cl)c1 [Compound I-69, 3-((2,3-dichloro-4-((5-cyclopropyl-3-(2,6-dichlorophenyl)isoxazol-4-yl)methoxy)phenyl)ethynyl)benzoic acid] | 0.2 to 1 | > 100
O=C(O)c1cccc(C#Cc2c(F)cc(OCc3c(-c4c(Cl)cccc4Cl)noc3C3CC3)cc2Cl)c1 [Compound I-70, 3-((2-chloro-4-((5-cyclopropyl-3-(2,6-dichlorophenyl)isoxazol-4-yl)methoxy)-6-fluorophenyl)ethynyl)benzoic acid] | 0.06 to 0.2 | > 100
CCNC(=O)Nc1cc(C#Cc2ccc(OCc3c(-c4c(Cl)cccc4Cl)noc3C3CC3)cc2Cl)cc(C(=O)O)c1 [Compound I-72, 3-((2-chloro-4-((5-cyclopropyl-3-(2,6-dichlorophenyl)isoxazol-4-yl)methoxy)phenyl)ethynyl)-5-(3-ethylureido)benzoic acid] | 0.2 to 1 | > 100
O=C(Nc1cc(C#Cc2ccc(OCc3c(-c4c(Cl)cccc4Cl)noc3C3CC3)cc2Cl)cc(C(=O)O)c1)OC1CC1 [Compound I-76, 3-((2-chloro-4-((5-cyclopropyl-3-(2,6-dichlorophenyl)isoxazol-4-yl)methoxy)phenyl)ethynyl)-5-((cyclopropoxycarbonyl)amino)benzoic acid] | ≤ 0.02 | > 100
CN(C(=O)OC(C)(C)C)c1cc(C#Cc2ccc(OCc3c(-c4c(Cl)cccc4Cl)noc3C3CC3)cc2Cl)cc(C(=O)O)c1 [Compound I-78, 3-((tert-butoxycarbonyl)(methyl)amino)-5-((2-chloro-4-((5-cyclopropyl-3-(2,6-dichlorophenyl)isoxazol-4-yl)methoxy)phenyl)ethynyl)benzoic acid] | 0.02 to 0.06 | 89
O=C(Nc1cc(C#Cc2ccc(OCc3c(-c4c(Cl)cccc4Cl)noc3C3CC3)cc2Cl)cc(C(=O)O)c1)OCCO [Compound I-81, 3-((2-chloro-((5-cyclopropyl-3-(2,6-dichlorophenyl)isoxazol-4-yl)methoxy)phenyl)ethynyl)-5-(((2-hydroxyethoxy)carbonyl)amino)benzoic acid] | 0.2 to 1 | > 100
